Laboratory results from patent publication US11446287B2, “Compounds and methods for EP300 or CBP modulation and indications therefor” (Opna Immuno-Oncology SA, priority 2019, dated 2022).

Target: T1, Recombinant human EP300 containing the bromodomain (EP300-BD (1040-1161)) (Homo sapiens, UniProt Q09472)
T1 construct: Recombinant human EP300 bromodomain (EP300-BD (1040-1161)); made in house; host or cells: E. coli BL21-CodonPlus (DE3), modified pET vector
T1 sequence (Q09472 1040-1161): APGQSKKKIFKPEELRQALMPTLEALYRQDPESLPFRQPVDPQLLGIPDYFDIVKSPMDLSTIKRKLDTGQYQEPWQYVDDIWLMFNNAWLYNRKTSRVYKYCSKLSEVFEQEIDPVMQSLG
Test: EP300 Alphascreen binding assay
Method in brief: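 Displacement of a biotinylated acetyl-K56 histone H3 peptide from the N-His bromodomain construct (1040-1161) measured by AlphaScreen proximity, beads at 7.5 μg/ml final, read 60 min after addition. Protein, peptide and compound first incubated 1 h at room temperature, pH 7.5 HEPES buffer; IC50 by four-parameter logistic fit.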

SMILES | IC50 [nM]
Cc1noc(C)c1-c1cnc2c(c1)c(-c1ccc(C(=O)O)cc1OC(F)(F)F)cn2-c1ccccc1F [P-0223, 4-(5-(3,5-dimethylisoxazol-4-yl)-1-(2-fluorophenyl)-1H-pyrrolo[2,3-b]pyridin-3-yl)-3-(trifluoromethoxy)benzoic acid] | 0.1 to 1000
CCOc1cccc(Cl)c1-n1cc(-c2ccccc2)c2ncc(-c3c(C)noc3C)cc21 [P-0224, 4-(1-(2-chloro-6-ethoxyphenyl)-3-phenyl-1H-pyrrolo[3,2-b]pyridin-6-yl)-3,5-dimethylisoxazole] | 1000 to 8000
CCOc1ccc(C(=O)O)cc1-n1cc(-c2ccccc2)c2ncc(-c3c(C)noc3C)cc21 [P-0225, 3-(6-(3,5-dimethylisoxazol-4-yl)-3-phenyl-1H-pyrrolo[3,2-b]pyridin-1-yl)-4-ethoxybenzoic acid] | 0.1 to 1000
Cc1noc(C)c1-c1cnc2c(c1)c(-c1ccc(C(=O)O)cc1OC(F)(F)F)cn2C1CCOCC1 [P-0226, 4-(5-(3,5-dimethylisoxazol-4-yl)-1-(tetrahydro-2H-pyran-4-yl)-1H-pyrrolo[2,3-b]pyridin-3-yl)-3-(trifluoromethoxy)benzoic acid] | 0.1 to 1000
Cc1noc(C)c1-c1cnc2c(c1)c(-c1ccc(C(=O)O)cc1OC(F)(F)F)cn2C1CCC(F)(F)CC1 [P-0227, 4-(1-(4,4-difluorocyclohexyl)-5-(3,5-dimethylisoxazol-4-yl)-1H-pyrrolo[2,3-b]pyridin-3-yl)-3-(trifluoromethoxy)benzoic acid] | 0.1 to 1000
Cc1noc(C)c1-c1cnc2c(c1)c(-c1ccc(C(=O)O)cc1OC(F)(F)F)c(C)n2-c1ccccn1 [P-0228, 4-(5-(3,5-dimethylisoxazol-4-yl)-2-methyl-1-(pyridin-2-yl)-1H-pyrrolo[2,3-b]pyridin-3-yl)-3-(trifluoromethoxy)benzoic acid] | 0.1 to 1000
Cc1noc(C)c1-c1cnc2c(-c3ccc(F)cc3F)cn(-c3ccc(C(=O)O)cc3OC(F)(F)F)c2c1 [P-0229, 4-(3-(2,4-difluorophenyl)-6-(3,5-dimethylisoxazol-4-yl)-1H-pyrrolo[3,2-b]pyridin-1-yl)-3-(trifluoromethoxy)benzoic acid] | 0.1 to 1000
Cc1noc(C)c1-c1cnc2c(c1)c(-c1c(F)cc(C(=O)O)cc1OC(F)(F)F)cn2C(C1CC1)C1CC1 [P-0230, 4-(1-(dicyclopropylmethyl)-5-(3,5-dimethylisoxazol-4-yl)-1H-pyrrolo[2,3-b]pyridin-3-yl)-3-fluoro-5-(trifluoromethoxy)benzoic acid] | 0.1 to 1000
Cc1ccccc1-n1cc(-c2ccc(C(=O)O)cc2OC(F)(F)F)c2cc(-c3c(C)noc3C)cnc21 [P-0231, 4-(5-(3,5-dimethylisoxazol-4-yl)-1-(o-tolyl)-1H-pyrrolo[2,3-b]pyridin-3-yl)-3-(trifluoromethoxy)benzoic acid] | 0.1 to 1000
Cc1noc(C)c1-c1cnc2c(c1)c(-c1ccc(C(=O)O)cc1OC(F)(F)F)cn2-c1ccc(F)cc1F [P-0232, 4-(1-(2,4-difluorophenyl)-5-(3,5-dimethylisoxazol-4-yl)-1H-pyrrolo[2,3-b]pyridin-3-yl)-3-(trifluoromethoxy)benzoic acid] | 0.1 to 1000
Cc1noc(C)c1-c1cnc2c(c1)c(-c1ccc(C(=O)O)cc1OC(F)(F)F)cn2-c1cc(F)ccc1F [P-0233, 4-(1-(2,5-difluorophenyl)-5-(3,5-dimethylisoxazol-4-yl)-1H-pyrrolo[2,3-b]pyridin-3-yl)-3-(trifluoromethoxy)benzoic acid] | 0.1 to 1000
Cc1noc(C)c1-c1cnc2c(-c3ccc(C(=O)O)cc3F)c(C(F)(F)F)n([C@@H](C)c3ccccn3)c2c1 [P-0234, (S)-4-(6-(3,5-dimethylisoxazol-4-yl)-1-(1-(pyridin-2-yl)ethyl)-2-(trifluoromethyl)-1H-pyrrolo[3,2-b]pyridin-3-yl)-3-fluorobenzoic acid] | 0.1 to 1000
Cc1cc(C(=O)O)ccc1-c1c(C(F)(F)F)n([C@@H](C)c2ccccn2)c2cc(-c3c(C)noc3C)cnc12 [P-0235, (S)-4-(6-(3,5-dimethylisoxazol-4-yl)-1-(1-(pyridin-2-yl)ethyl)-2-(trifluoromethyl)-1H-pyrrolo[3,2-b]pyridin-3-yl)-3-methylbenzoic acid] | 0.1 to 1000
COc1cc(C(=O)O)ccc1-c1c(C(F)(F)F)n([C@@H](C)c2ccccn2)c2cc(-c3c(C)noc3C)cnc12 [P-0236, (S)-4-(6-(3,5-dimethylisoxazol-4-yl)-1-(1-(pyridin-2-yl)ethyl)-2-(trifluoromethyl)-1H-pyrrolo[3,2-b]pyridin-3-yl)-3-methoxybenzoic acid] | 0.1 to 1000
Cc1noc(C)c1-c1cnc2c(-c3cn(C)nc3C3CC3)c(C(F)(F)F)n([C@@H](C)c3ccccn3)c2c1 [P-0237, (S)-4-(3-(3-cyclopropyl-1-methyl-1H-pyrazol-4-yl)-1-(1-(pyridin-2-yl)ethyl)-2-(trifluoromethyl)-1H-pyrrolo[3,2-b]pyridin-6-yl)-3,5-dimethylisoxazole] | 0.1 to 1000
Cc1noc(C)c1-c1cnc2c(-c3cc(C(=O)O)ccc3F)c(C(F)(F)F)n([C@@H](C)c3ccccn3)c2c1 [P-0238, (S)-3-(6-(3,5-dimethylisoxazol-4-yl)-1-(1-(pyridin-2-yl)ethyl)-2-(trifluoromethyl)-1H-pyrrolo[3,2-b]pyridin-3-yl)-4-fluorobenzoic acid] | 0.1 to 1000
COc1ccc(C(=O)O)cc1-c1c(C(F)(F)F)n([C@@H](C)c2ccccn2)c2cc(-c3c(C)noc3C)cnc12 [P-0239, (S)-3-(6-(3,5-dimethylisoxazol-4-yl)-1-(1-(pyridin-2-yl)ethyl)-2-(trifluoromethyl)-1H-pyrrolo[3,2-b]pyridin-3-yl)-4-methoxybenzoic acid] | 0.1 to 1000
Cc1noc(C)c1-c1cnc2c(-c3cc(F)cc(C(=O)O)c3)c(C(F)(F)F)n([C@@H](C)c3ccccn3)c2c1 [P-0240, (S)-3-(6-(3,5-dimethylisoxazol-4-yl)-1-(1-(pyridin-2-yl)ethyl)-2-(trifluoromethyl)-1H-pyrrolo[3,2-b]pyridin-3-yl)-5-fluorobenzoic acid] | 0.1 to 1000
Cc1noc(C)c1-c1cnc2c(-c3cc(Cl)cc(C(=O)O)c3)c(C(F)(F)F)n([C@@H](C)c3ccccn3)c2c1 [P-0241, (S)-3-chloro-5-(6-(3,5-dimethylisoxazol-4-yl)-1-(1-(pyridin-2-yl)ethyl)-2-(trifluoromethyl)-1H-pyrrolo[3,2-b]pyridin-3-yl)benzoic acid] | 0.1 to 1000
Cc1noc(C)c1-c1cnc2c(-c3ccc(C(=O)O)c(F)c3)c(C(F)(F)F)n([C@@H](C)c3ccccn3)c2c1 [P-0242, (S)-4-(6-(3,5-dimethylisoxazol-4-yl)-1-(1-(pyridin-2-yl)ethyl)-2-(trifluoromethyl)-1H-pyrrolo[3,2-b]pyridin-3-yl)-2-fluorobenzoic acid] | 1000 to 8000
